# Reference: ChEMBL document CHEMBL1201862, “PubChem BioAssay data set” (2004)
# Where “and” joins values, the source holds several entries; their conditions need not be identical. Equal entries are not always repeated. Calls of active or inactive are those of the source.
# Assays:
# Cytochrome P450 1A2 = target: T1, Cytochrome P450 1A2 (Homo sapiens, UniProt P05177);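 note: PubChem cytochrome P450 panel assay, CYP1A2 panel member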
# T1 sequence (P05177 whole entry): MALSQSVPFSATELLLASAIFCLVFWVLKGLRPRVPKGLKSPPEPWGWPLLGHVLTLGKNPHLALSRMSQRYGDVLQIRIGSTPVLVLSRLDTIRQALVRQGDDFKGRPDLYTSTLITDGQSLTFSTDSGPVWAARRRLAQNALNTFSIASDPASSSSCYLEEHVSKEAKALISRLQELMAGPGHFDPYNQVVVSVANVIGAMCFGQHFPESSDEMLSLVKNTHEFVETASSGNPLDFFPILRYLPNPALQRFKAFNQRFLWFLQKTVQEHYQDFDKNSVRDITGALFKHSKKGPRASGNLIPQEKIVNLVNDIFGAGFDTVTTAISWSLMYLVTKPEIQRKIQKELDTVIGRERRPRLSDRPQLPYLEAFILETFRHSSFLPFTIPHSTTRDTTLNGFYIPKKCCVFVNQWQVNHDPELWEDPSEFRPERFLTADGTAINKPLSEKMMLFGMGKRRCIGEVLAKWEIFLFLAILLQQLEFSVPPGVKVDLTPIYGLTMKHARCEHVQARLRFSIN
# cells = format: functional
# Cytochrome P450 3A4 = Cytochrome P450 3A4 (Homo sapiens, UniProt P08684);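 note: CYP3A4 tested as one member of a cytochrome P450 panel screen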
# [1] = Luminescence Cell-Based Dose Retest to Confirm Inhibitors of Cancer Stem Cells. [Related pubchem assays (depositor defined):AID2717, AID2721]; format: functional; settings: Homo sapiens
# BJ [2] = experiment: cytotoxicity toward BJ-TERT fibroblasts, dose response, cell-based, RAS-independent, luminescence (AID 1933); format: functional; settings: Homo sapiens
# BJ [3] = experiment: cells; format: functional, cell-based; settings: Homo sapiens
# BJ [4] = experiment: cytotoxicity toward BJ-TERT-LT-ST fibroblasts, dose response, cell-based, RAS-independent, luminescence (AID 1935); format: functional; settings: Homo sapiens;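 note: BJ fibroblasts immortalized with TERT plus LT and ST oncogenes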
# [5] = cytotoxicity toward DRD oncogenic fibroblasts, dose response, cell-based, non-viral oncogenic, luminescence (AID 1934); format: functional; settings: Homo sapiens
# Cytochrome P450 2C9 = Cytochrome P450 2C9 (Homo sapiens, UniProt P11712)
# [6] = inhibitors of firefly luciferase expression or activity, dose response, H4 neuroglioma cells, luminescence (AID 1990); format: functional, cell-based
# [7] = Luminescence Cell-Based Dose Response HTS to Identify Inhibitors of 5'UTR Stem-Loop Driven Prion Protein mRNA Translation in H4 Neuroglioblastoma Cells. [Related pubchem assays: 1827 (Project Summary), 1813 (Primary HTS)]; format: functional
# [8] = inhibitors of SNCA 5'UTR-driven reporter translation, confirmation, H4 neuroglioma cells, luminescence (AID 1988); format: functional, cell-based
# [9] = Luminescence Cell-Based Dose Response HTS to Identify Activators of Luciferase Translation or Activity in H4 […] Cells. [Related pubchem assays: 1829 (Project Summary), 1814 (Primary HTS)]; format: functional
# H4 = experiment: Luminescence Cell-Based Dose Response HTS to Identify Activators of 5'UTR Stem-Loop Driven Prion Protein mRNA Translation in H4 Neuroglioblastoma Cells. [Related pubchem assays: 1829 (Project Summary), 1814 (Primary HTS)]; format: functional; settings: Homo sapiens
# Cytochrome P450 2C19 = Cytochrome P450 2C19 (Homo sapiens, UniProt P33261); experiment: Cytochrome panel assay with activity outcomes. Panel member name: p450-cyp2c19 Compounds with AC50 equal or less than 10 uM are considered active; format: functional; settings: read-out: AC50
# [10] = target: T2, Rac GTPase-activating protein 1 (Homo sapiens, UniProt Q9H0H5); experiment: MgcRacGAP GTPase-activating activity inhibitors, confirmation, biochemical, ADP Hunter fluorescence, primary and confirmatory (AID 624330); format: functional
# T2 sequence (Q9H0H5 whole entry): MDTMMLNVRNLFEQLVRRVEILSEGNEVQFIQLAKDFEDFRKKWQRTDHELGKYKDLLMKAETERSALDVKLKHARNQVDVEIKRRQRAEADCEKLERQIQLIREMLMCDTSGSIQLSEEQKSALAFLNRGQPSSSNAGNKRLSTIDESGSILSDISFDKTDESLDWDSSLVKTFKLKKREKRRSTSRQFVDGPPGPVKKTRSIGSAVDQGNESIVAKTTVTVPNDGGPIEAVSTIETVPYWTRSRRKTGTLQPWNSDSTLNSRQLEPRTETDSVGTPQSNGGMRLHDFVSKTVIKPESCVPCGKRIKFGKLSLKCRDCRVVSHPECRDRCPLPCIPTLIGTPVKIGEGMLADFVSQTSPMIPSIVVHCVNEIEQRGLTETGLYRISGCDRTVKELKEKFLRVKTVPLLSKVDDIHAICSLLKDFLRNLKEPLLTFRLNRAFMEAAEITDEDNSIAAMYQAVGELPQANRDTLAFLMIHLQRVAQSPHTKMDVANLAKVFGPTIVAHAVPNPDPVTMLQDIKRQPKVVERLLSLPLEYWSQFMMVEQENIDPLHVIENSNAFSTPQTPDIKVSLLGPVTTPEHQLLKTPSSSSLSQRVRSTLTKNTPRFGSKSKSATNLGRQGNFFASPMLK
# Cytochrome P450 3A4, sequence (P08684 whole entry): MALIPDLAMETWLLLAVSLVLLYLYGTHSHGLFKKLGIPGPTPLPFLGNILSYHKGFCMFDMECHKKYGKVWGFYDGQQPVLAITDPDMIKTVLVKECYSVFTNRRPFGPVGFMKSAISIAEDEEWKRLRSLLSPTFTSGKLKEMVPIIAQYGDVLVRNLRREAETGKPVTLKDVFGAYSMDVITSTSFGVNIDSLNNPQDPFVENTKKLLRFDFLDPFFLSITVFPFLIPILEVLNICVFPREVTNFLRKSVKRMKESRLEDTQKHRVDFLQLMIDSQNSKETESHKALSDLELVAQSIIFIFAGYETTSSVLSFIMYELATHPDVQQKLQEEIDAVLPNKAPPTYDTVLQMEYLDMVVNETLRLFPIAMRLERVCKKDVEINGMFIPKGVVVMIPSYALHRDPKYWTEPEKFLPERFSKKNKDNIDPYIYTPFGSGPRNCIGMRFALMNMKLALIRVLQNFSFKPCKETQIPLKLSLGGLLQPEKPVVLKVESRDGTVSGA
# Cytochrome P450 2C19, sequence (P33261 whole entry): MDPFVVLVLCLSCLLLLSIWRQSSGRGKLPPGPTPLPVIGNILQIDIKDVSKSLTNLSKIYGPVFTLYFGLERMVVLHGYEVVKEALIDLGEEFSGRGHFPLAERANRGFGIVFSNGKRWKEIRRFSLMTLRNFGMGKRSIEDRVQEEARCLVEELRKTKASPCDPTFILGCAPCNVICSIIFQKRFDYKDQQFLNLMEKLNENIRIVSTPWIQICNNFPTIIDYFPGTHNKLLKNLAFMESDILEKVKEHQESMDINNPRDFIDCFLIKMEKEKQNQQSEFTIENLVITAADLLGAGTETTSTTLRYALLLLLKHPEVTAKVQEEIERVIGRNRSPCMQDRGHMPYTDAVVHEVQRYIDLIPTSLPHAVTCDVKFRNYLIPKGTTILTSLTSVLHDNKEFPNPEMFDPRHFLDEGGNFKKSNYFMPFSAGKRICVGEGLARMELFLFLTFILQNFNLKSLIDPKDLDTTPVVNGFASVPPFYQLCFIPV
# Cytochrome P450 2C9, sequence (P11712 whole entry): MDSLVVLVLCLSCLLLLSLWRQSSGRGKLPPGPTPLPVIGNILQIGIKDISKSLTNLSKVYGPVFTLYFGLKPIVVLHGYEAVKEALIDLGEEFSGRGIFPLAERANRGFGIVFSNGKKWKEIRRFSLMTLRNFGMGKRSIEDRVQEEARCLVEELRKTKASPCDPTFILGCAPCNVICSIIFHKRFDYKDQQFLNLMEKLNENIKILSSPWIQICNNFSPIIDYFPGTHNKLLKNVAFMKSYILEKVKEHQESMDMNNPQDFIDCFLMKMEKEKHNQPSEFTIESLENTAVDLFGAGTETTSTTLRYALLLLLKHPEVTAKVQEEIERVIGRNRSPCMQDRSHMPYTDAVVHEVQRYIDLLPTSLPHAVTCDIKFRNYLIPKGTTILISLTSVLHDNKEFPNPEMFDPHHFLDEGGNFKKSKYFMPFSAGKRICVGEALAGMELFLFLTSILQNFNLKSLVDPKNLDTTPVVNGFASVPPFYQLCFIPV
compound,measurement,setting,value
CN(CCc1ccc(Cl)c(Cl)c1)[C@H]1CCCC[C@H]1N1CCCC1,AC50,Cytochrome P450 1A2,31.6 µM (inconclusive)
Cc1ccc(OC(=O)c2ccc(Br)o2)cc1,IC50,cells,18.5 µM (active)
CCNc1ncc2nc(-c3ccc(OC)cc3)c(=O)n(CCC#N)c2n1,AC50,Cytochrome P450 1A2,10 µM (inconclusive)
same,AC50,Cytochrome P450 3A4,15.8 µM (inconclusive)
O=C(CN1CCN(c2ccc(Cl)cc2)CC1)Nc1ccc(F)c(F)c1,AC50,Cytochrome P450 1A2,14.1 µM (inconclusive)
same,AC50,Cytochrome P450 3A4,25.1 µM (inconclusive)
Cc1ccc(NC(=O)/C=C/c2ccc3c(c2)OCO3)nc1,AC50,[1],1.08 µM (active)
CN1CCN(CC(=O)Nc2ccc([N+](=O)[O-])cc2C(=O)c2ccccc2)CC1,EC50,BJ [2],> 150 µM (not active)
same,EC50,BJ [3],> 150 µM (not active)
same,EC50,BJ [4],> 150 µM (not active)
same,EC50,[5],> 150 µM (not active)
CN(C)S(=O)(=O)c1ccc(C(=O)Oc2ccccc2)cc1,IC50,cells,7.22 µM (active)
COc1cccc(Cn2c(=O)c(-c3cn(C)c4ccccc34)nc3cnc(N4CCOCC4)nc32)c1,AC50,Cytochrome P450 1A2,25.1 µM (inconclusive)
COc1ccc2c(CC(=O)NCC3CCC(C(=O)O)CC3)cc(=O)oc2c1 (stereo not given),AC50,Cytochrome P450 1A2,22.4 µM (inconclusive)
same,AC50,Cytochrome P450 2C9,15.8 µM (inconclusive)
CCc1nc(SCC(=O)NC2CC2)c2c(C)c(C)sc2n1,EC50,[6],16.7 µM (active)
same,EC50,[7],> 120 µM (not active)
same,EC50,[8],> 120 µM (not active)
Cc1cc(C)nc(NC(=NC(=O)Nc2ccc(Cl)cc2)NCCc2c[nH]c3ccccc23)n1,AC50,[1],2.28 µM (active)
CCOC(=O)C1CSC(CC(=O)Nc2ccc(Cl)c(Cl)c2)C(=O)N1 (stereo not given),IC50,cells,36.2 µM (active)
Cc1c(C)c2ccc(OCC(=O)Nc3cccnc3)c(C)c2oc1=O,EC50,[9],22 µM (active)
same,EC50,H4,16 µM (active)
COc1ccccc1N1CCN(C(=O)c2ccc([N+](=O)[O-])s2)CC1,IC50,cells,46.4 µM (active)
COc1ccc(NN/C=C2/C(=O)NC(=O)N(c3ccc(C)c(C)c3)C2=O)cc1,EC50,[6],15.2 µM (active)
same,EC50,[7],> 120 µM (not active)
same,EC50,[8],> 120 µM (not active)
same,AC50,[1],0.716 µM (active)
CCOC(=O)COc1ccc(C(=O)Nc2cccc(Cl)c2C)cc1,IC50,cells,0.52 µM (active)
COc1ccccc1-n1c(SCC(=O)N2CCCC2)nc2cccnc21,AC50,Cytochrome P450 1A2,0.1 µM (inconclusive)
same,AC50,Cytochrome P450 2C9,1 µM (inconclusive)
O=C1NCCc2c1[nH]c1ccc([N+](=O)[O-])cc21,EC50,[6],12.9 µM (active)
same,EC50,[7],15.6 µM (active)
same,EC50,[8],16.3 µM (active)
c1cnc(N2CC[C@@]3(CCCNC3)C2)nc1,AC50,Cytochrome P450 1A2,25.1 µM (inconclusive)
same,AC50,Cytochrome P450 3A4,31.6 µM (inconclusive)
CC(=O)c1cc2c(ccc3ccccc32)oc1=O,IC50,cells,15.4 µM (active)
O=C(Cc1ccccc1)NC(NCCc1ccccc1)C(Cl)(Cl)Cl (stereo not given),AC50,Cytochrome P450 1A2,25.1 µM (inconclusive)
CC(C)OCCCNc1nc2c(c(=O)n(Cc3ccccc3F)c(=O)n2C)n1C,EC50,[6],16.8 µM (active)
same,EC50,[7],> 120 µM (not active)
same,EC50,[8],> 120 µM (not active)
CCc1ccc(C(=O)COC(=O)c2ccc(Cl)nc2)cc1,IC50,cells,> 50 µM (active)
Cc1ccc(NC(=O)C(C)N2C(=O)C3C4CC(C(Br)C4Br)C3C2=O)cc1 (stereo not given),AC50,Cytochrome P450 1A2,25.1 µM (inconclusive)
COc1ccc2cc(-c3csc(-c4cccnc4)n3)ccc2c1,EC50,[9],0.108 µM (inconclusive)
same,EC50,H4,22 µM (active)
COc1ccc2sc(-c3ccc(N(C)C)cc3)c(C#Cc3cncn3C)c2c1,AC50,[1],1.11 µM (active)
O=C(O)c1cc(-c2ccc(-c3ccccc3)cc2)nc2cc3ccccc3cc12,AC50,Cytochrome P450 2C19,3.98 µM (inconclusive)
same,AC50,Cytochrome P450 1A2,0.794 µM (inconclusive)
O=C1CC(N(O)C2CC(=O)N(Cc3ccccc3)C2=O)C(=O)N1Cc1ccccc1 (stereo not given),AC50,Cytochrome P450 2C19,2 µM (inconclusive)
same,AC50,Cytochrome P450 1A2,39.8 µM (inconclusive)
same,AC50,Cytochrome P450 2C9,11.2 µM (inconclusive)
Cc1ccc(/C=C2/C(=O)ON=C2c2ccccc2)o1,EC50,BJ [2],12.8 µM (active)
same,EC50,BJ [3],18.3 µM (active)
same,EC50,BJ [4],> 150 µM (inconclusive)
same,EC50,[5],12.2 µM (active)
same,IC50,[10],36.9 µM (active)
O=C(Cn1cc([N+](=O)[O-])nc1[N+](=O)[O-])N1CCN(c2ccccc2)CC1,IC50,cells,7.01 µM (active)
COc1ccc(-c2nc(CS(=O)(=O)CC(=O)NCCCc3ccccc3)c(C)o2)cc1,EC50,[6],> 120 µM (not active)
same,EC50,[7],> 120 µM (not active)
same,EC50,[8],14.5 µM (active)
CC(C)c1ccc(C2C3=C(O)OCC3=Nc3cc4c(cc32)OCO4)cc1 (stereo not given),EC50,BJ [2],0.746 µM (inconclusive)
same,EC50,BJ [3],5.49 µM (inconclusive)
same,EC50,BJ [4],0.386 µM (inconclusive)
same,EC50,[5],0.88 µM (active)
COc1ccccc1N1CCN(C(=O)CCc2nnc3ccc(N4CCC(C)CC4)nn23)CC1,EC50,[6],11.2 µM (active)
same,EC50,[7],> 120 µM (not active)
same,EC50,[8],17.3 µM (active)
Cc1cc(C)c(NC(=O)CSCc2c(C)noc2C)c(C)c1,AC50,[1],> 195 µM (inactive)
CCc1noc(C)c1C(=O)Nc1nc(-c2cc(C)ccc2C)c(C)s1,AC50,Cytochrome P450 2C19,7.08 µM (inconclusive)
same,AC50,Cytochrome P450 1A2,15.8 µM (inconclusive)
same,AC50,Cytochrome P450 2C9,7.94 µM (inconclusive)
CCOC(=O)C1=C(C)N=C(C)/C(=C(/O)OCC)C1c1ccccc1/C=C/C(=O)OC(C)(C)C (stereo not given),AC50,[1],3.4 µM (active)
COc1ccc(-c2c(-c3cc(OC)cc(OC)c3)n(C)c3ccc(-c4cc(F)cc(OC)c4)cc23)cc1,AC50,[1],> 195 µM (inactive)
O=S(=O)(O)c1ccc(/N=N\c2ccc3c(S(=O)(=O)O)cccc3c2O)c2ccccc12,AC50,Cytochrome P450 1A2,3.16 µM (inconclusive)
O=c1cc(-c2ccncc2)oc2c1ccc1ccccc12,IC50,cells,17.9 µM (active)
COc1ccc(C(=O)O/N=C/c2c(C(F)(F)F)nn(C)c2SCc2ccccc2Cl)cc1,EC50,[6],17 µM (active)
same,EC50,[7],12.8 µM (active)
same,EC50,[8],12 µM (active)
COC(=O)C1=C(C)N=C(C)/C(=C(/O)O[C@@H]2CCCN(Cc3ccccc3)C2)[C@@H]1c1cccc([N+](=O)[O-])c1,EC50,[6],12 µM (active)
same,EC50,[7],14.6 µM (active)
same,EC50,[8],9.3 µM (active)
Cc1nnc(S)n1/N=C/c1ccc(OCc2ccc(Cl)cc2Cl)cc1,IC50,cells,43.8 µM (active)
N#CC(C#N)=Cc1ccc([N+](=O)[O-])c(O)c1,AC50,Cytochrome P450 1A2,31.6 µM (inconclusive)
same,AC50,Cytochrome P450 3A4,1.58 µM (inconclusive)
same,AC50,Cytochrome P450 2C9,31.6 µM (inconclusive)
CCn1cc(C(=O)O)c(=O)c2cc3c(cc21)OCO3 [OXOLINIC ACID],AC50,Cytochrome P450 1A2,5.01 µM (inconclusive) and 2.51 µM (inconclusive)
